# Measured values reported in patent USRE47302E1 (ONYX THERAPEUTICS INC., priority 2013, dated 2019).
# Where two headings read alike, the source gives them in different places.
# Legend:
# [1] = molecular target: T1, proteasome subunit β5 (beta5) (Homo sapiens, UniProt P28074); assay: Proteasome active-site ELISA (ProCISE), beta5, MOLT-4 lysate; assay type: biochemical; details: MOLT4 lysate, human, 1 h continuous treatment, 25° C.
# T1 construct: Lysate from the human acute lymphoblastic leukemia cell line, MOLT-4; endogenous in cells; host or cells: MOLT-4
# Outline: (§1)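 MOLT-4 cell lysate treated 1 h at 25 °C with compound; probe-bound subunits denatured, pulled down on streptavidin beads and detected with subunit-specific antibodies plus HRP chemiluminescence.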
# Solubility pH 7 = details: pH 7, aqueous buffer
# [2] = molecular target: T2, immunoproteasome subunit LMP7 (Homo sapiens, UniProt P28062); assay: Proteasome active-site ELISA (ProCISE), LMP7, MOLT-4 lysate; assay type: biochemical
# T2 construct: Lysate from the human acute lymphoblastic leukemia cell line, MOLT-4; endogenous in cells; host or cells: MOLT-4
# Outline: as §1
# [3] = molecular target: human 20S immunoproteasome (i20S) (Homo sapiens, UniProt P28062); assay: 20S proteasome assay, chymotrypsin-like activity (succinyl-Leu-Leu-Val-Tyr-AMC), i20S; assay type: biochemical; details: read-out: LLVY i20S Hu 1 h CONT: IC50, LLVY substrate, 1 h continuous
# From the text: Assay buffer consisted of TE buffer [20 mmol/L Tris (pH 8.0), 0.5 mmol/L EDTA] with (20S) or without (cell lysate) 0.03% SDS. Reactions were initiated by enzyme or lysate addition and monitored for AMC product formation at 27jC with a plate-based spectofluorometer (Tecan).
# [4] = MOLT4 lysate, 1 h continuous treatment, 25° C.
# [5] = read-out: ProCISE beta5 MOLT4 lysate Hu 1 h CONT: IC50
# [6] = read-out: ProCISE LMP7 MOLT4 lysate Hu 1 h CONT: IC50, 1 h continuous treatment, 25° C.
compound,measurement,setting,value
"COc1ccc([C@@H](O)[C@H](NC(=O)[C@H](CO)NC(=O)CN2CCOCC2)C(=O)N[C@@H](CC2=CCCCC2)C(=O)[C@@]2(C)CO2)cc1 [Compound C-1116, (2S,3R)-N-((S)-3-(Cyclohex-1-en-1-yl)-1-((R)-2-methyloxiran-2-yl)-1-oxopropan-2-yl)-3-hydroxy-2-((S)-3-hydroxy-2-(2-morpholinoacetamido)propanamido)-3-(4-methoxyphenyl)propanamide]",IC50,[1],2940 nM
same,solubility,Solubility pH 7,8230 µg/mL
same,IC50,[2]; [4],50.6 nM
"Cc1ccc(C[C@H](NC(=O)[C@H](C)NC(=O)CN2CCOCC2)C(=O)N[C@@H](CC2CCCC2)C(=O)[C@@]2(C)CO2)cc1O [Compound C-1117, (S)-N-((S)-3-Cyclopentyl-1-((R)-2-methyloxiran-2-yl)-1-oxopropan-2-yl)-3-(3-hydroxy-4-methylphenyl)-2-((S)-2-(2-morpholinoacetamido)propanamido)propanamide]",IC50,[1],1100 nM
same,solubility,Solubility pH 7,1560 µg/mL
same,IC50,[2]; [4],101 nM
"COc1ccc(C[C@H](NC(=O)[C@H](C)NC(=O)CN2CCC(O)CC2)C(=O)N[C@@H](CC2=CCCC2)C(=O)[C@@]2(C)CO2)cc1 [Compound C-1118, (S)-N-((S)-3-(Cyclopent-1-en-1-yl)-1-((R)-2-methyloxiran-2-yl)-1-oxopropan-2-yl)-2-((S)-2-(2-(4-hydroxypiperidin-1-yl)acetamido)propanamido)-3-(4-methoxyphenyl)propanamide]",IC50,[1],407 nM
same,solubility,Solubility pH 7,6260 µg/mL
same,IC50,[2]; [4],43.8 nM
"C[C@H](NC(=O)CN1CCOCC1)C(=O)N[C@@H](Cc1cc[n+]([O-])cc1)C(=O)N[C@@H](CC1CCCC1)C(=O)[C@@]1(C)CO1 [Compound C-1119, 4-((S)-3-(((S)-3-cyclopentyl-1-((R)-2-methyloxiran-2-yl)-1-oxopropan-2-yl)amino)-2-((S)-2-(2-morpholinoacetamido)propanamido)-3-oxopropyl)pyridine 1-oxide]",IC50,[1],1390 nM
same,solubility,Solubility pH 7,10600 µg/mL
same,IC50,[2]; [4],833 nM
"C[C@H](NC(=O)CN1CCOCC1)C(=O)N[C@@H](Cc1ccc(S(C)(=O)=O)cc1)C(=O)N[C@@H](CC1=CCCC1)C(=O)[C@@]1(C)CO1 [Compound C-1125, (S)-N-((S)-3-(cyclopent-1-en-1-yl)-1-((R)-2-methyloxiran-2-yl)-1-oxopropan-2-yl)-3-(4-(methylsulfonyl)phenyl)-2-((S)-2-(2-morpholinoacetamido)propanamido)propanamide]",IC50,[1],566 nM
same,solubility,Solubility pH 7,7720 µg/mL
same,IC50,[2]; [4],97.6 nM
"COc1ccc(C[C@H](NC(=O)[C@H](C)NC(=O)CN2CCS(=O)(=O)CC2)C(=O)N[C@@H](CC2=CCCCC2)C(=O)[C@@]2(C)CO2)cc1 [Compound C-1127, (S)-N-((S)-3-(cyclohex-1-en-1-yl)-1-((R)-2-methyloxiran-2-yl)-1-oxopropan-2-yl)-2-((S)-2-(2-(1,1-dioxidothiomorpholino)acetamido)propanamido)-3-(4-methoxyphenyl) propanamide]",IC50,[1],4170 nM
same,solubility,Solubility pH 7,1520 µg/mL
same,IC50,[2]; [4],315 nM
"Cc1ccc(C[C@H](NC(=O)[C@H](C)NC(=O)CN2CCOCC2)C(=O)N[C@@H](CC2=CCCC2)C(=O)[C@@]2(C)CO2)cc1O [Compound C-1129, (S)-N-((S)-3-(cyclopent-1-en-1-yl)-1-((R)-2-methyloxiran-2-yl)-1-oxopropan-2-yl)-3-(3-hydroxy-4-methylphenyl)-2-((S)-2-(2-morpholinoacetamido)propanamido) propanamide]",IC50,[1],793 nM
same,solubility,Solubility pH 7,1760 µg/mL
same,IC50,[2]; [4],76.4 nM
"COc1ccc(C[C@H](NC(=O)[C@H](CC#N)NC(=O)CN2CCOCC2)C(=O)N[C@@H](CC2=CCCC2)C(=O)[C@@]2(C)CO2)cc1 [Compound C-1135, (S)-3-Cyano-N-((S)-1-(((S)-3-(cyclopent-1-en-1-yl)-1-((R)-2-methyloxiran-2-yl)-1-oxopropan-2-yl)amino)-3-(4-methoxyphenyl)-1-oxopropan-2-yl)-2-(2-morpholinoacetamido)propanamide]",IC50,[1],289 nM
same,solubility,Solubility pH 7,1860 µg/mL
same,IC50,[2]; [4],31 nM
"CCc1ccc(C[C@H](NC(=O)[C@H](C)NC(=O)CN2CCOCC2)C(=O)N[C@@H](CC2=CCCC2)C(=O)[C@@]2(C)CO2)cc1O [Compound C-1136, (S)-N-((S)-3-(cyclopent-1-en-1-yl)-1-((R)-2-methyloxiran-2-yl)-1-oxopropan-2-yl)-3-(4-ethyl-3-hydroxyphenyl)-2-((S)-2-(2-morpholinoacetamido)propanamido)propanamide]",IC50,[1],402 nM
same,solubility,Solubility pH 7,54.4 µg/mL
same,IC50,[2]; [4],46.2 nM
"COc1ccc(C[C@H](NC(=O)[C@@H](NC(=O)CN2CCOCC2)C2COC2)C(=O)N[C@@H](CC2=CCCCC2)C(=O)[C@@]2(C)CO2)cc1 [Compound C-1138, (S)-N-((S)-3-(Cyclohex-1-en-1-yl)-1-((R)-2-methyloxiran-2-yl)-1-oxopropan-2-yl)-3-(4-methoxyphenyl)-2-((S)-2-(2-morpholinoacetamido)-2-(oxetan-3-yl)acetamido)propanamide]",IC50,[1],409 nM
same,solubility,Solubility pH 7,2350 µg/mL
same,IC50,[2]; [4],45.3 nM
"COc1ccc([C@@H](O)[C@H](NC(=O)[C@H](CO)NC(=O)CN2CCOCC2)C(=O)N[C@@H](CC2=CCCC2)C(=O)[C@@]2(C)CO2)cc1 [Compound C-1144, (2S,3R)-N-((S)-3-(cyclopent-1-en-1-yl)-1-((R)-2-methyloxiran-2-yl)-1-oxopropan-2-yl)-3-hydroxy-2-((S)-3-hydroxy-2-(2-morpholinoacetamido)propanamido)-3-(4-methoxyphenyl)propanamide]",IC50,[1],266 nM
same,solubility,Solubility pH 7,> 10000 µg/mL
same,IC50,[2]; [4],20.1 nM
C[C@H](NC(=O)CN1CCOCC1)C(=O)N[C@@H](Cc1ccccn1)C(=O)N[C@@H](Cc1ccccc1)C(=O)[C@@]1(C)CO1 [Compound C-1155],IC50,[3],252 nM
same,solubility,Solubility pH 7,2090 µg/mL
COc1ccc(C[C@H](NC(=O)[C@@H](CO)NC(=O)CN2CCOCC2)C(=O)N[C@@H](Cc2ccccc2)C(=O)[C@@]2(C)CO2)cc1 [Compound C-1158],IC50,[1]; [5],874 nM
same,solubility,Solubility pH 7,3030 µg/mL
same,IC50,[2]; [6],161 nM
COc1ccc(C[C@H](NC(=O)[C@H](C)NC(=O)[C@H]2CCCN2C)C(=O)N[C@@H](Cc2ccccc2)C(=O)[C@@]2(C)CO2)cc1 [Compound C-1164],IC50,[1]; [5],581 nM
same,solubility,Solubility pH 7,2670 µg/mL
same,IC50,[2]; [6],82.1 nM
"COc1ccc(C[C@H](NC(=O)[C@H](C)NC(=O)[C@H]2CCCO2)C(=O)N[C@@H](Cc2ccccc2)C(=O)[C@@]2(C)CO2)cc1 [Compound C-1166, (R)-N-((S)-1-(((S)-3-(4-methoxyphenyl)-1-(((S)-1-((R)-2-methyloxiran-2-yl)-1-oxo-3-phenylpropan-2-yl)amino)-1-oxopropan-2-yl)amino)-1-oxopropan-2-yl)tetrahydrofuran-2-carboxamide]",IC50,[1],961 nM
same,solubility,Solubility pH 7,536 µg/mL
same,IC50,[2]; [4],360 nM
"COc1ccc(C[C@H](NC(=O)[C@H](C)NC(=O)[C@@H]2CCCO2)C(=O)N[C@@H](Cc2ccccc2)C(=O)[C@@]2(C)CO2)cc1 [Compound C-1167, (S)-N-((S)-1-(((S)-3-(4-methoxyphenyl)-1-(((S)-1-((R)-2-methyloxiran-2-yl)-1-oxo-3-phenylpropan-2-yl)amino)-1-oxopropan-2-yl)amino)-1-oxopropan-2-yl)tetrahydrofuran-2-carboxamide]",IC50,[1],526 nM
same,solubility,Solubility pH 7,790 µg/mL
same,IC50,[2]; [4],155 nM
COc1ccc(C[C@H](NC(=O)[C@H](C)NC(=O)CC2COC2)C(=O)N[C@@H](Cc2ccccc2)C(=O)[C@@]2(C)CO2)cc1 [Compound C-1179],IC50,[1]; [5],526 nM
same,solubility,Solubility pH 7,1300 µg/mL
same,IC50,[2]; [6],119 nM
COc1ccc(C[C@H](NC(=O)[C@@H](C)NC(=O)[C@H]2CC[C@@H](O)CC2)C(=O)N[C@@H](Cc2ccccc2)C(=O)[C@@]2(C)CO2)cc1 [Compound C-1187],IC50,[1]; [5],43.4 nM
same,solubility,Solubility pH 7,130 µg/mL
same,IC50,[2]; [6],10.5 nM
COc1ccc(C[C@H](NC(=O)[C@@H](C)NC(=O)C2CCCCC2)C(=O)N[C@@H](Cc2ccccc2)C(=O)[C@@]2(C)CO2)cc1 [Compound C-1188],IC50,[1]; [5],185 nM
same,solubility,Solubility pH 7,12.1 µg/mL
same,IC50,[2]; [6],29.2 nM
COc1ccc(C[C@H](NC(=O)[C@@H](C)NC(=O)C2CCCC2)C(=O)N[C@@H](Cc2ccccc2)C(=O)[C@@]2(C)CO2)cc1 [Compound C-1189],IC50,[1]; [5],476 nM
same,solubility,Solubility pH 7,22.7 µg/mL
same,IC50,[2]; [6],58.5 nM
COc1ccc(C[C@H](NC(=O)[C@@H](C)NC(=O)[C@H]2CC[C@H](O)CC2)C(=O)N[C@@H](Cc2ccc(C)cc2)C(=O)[C@@]2(C)CO2)cc1 [Compound C-1190],IC50,[1]; [5],205 nM
same,solubility,Solubility pH 7,457 µg/mL
same,IC50,[2]; [6],16.8 nM
COc1ccc(C[C@H](NC(=O)[C@@H](C)NC(=O)[C@H]2CC[C@H](O)CC2)C(=O)N[C@@H](Cc2ccc(O)cc2)C(=O)[C@@]2(C)CO2)cc1 [Compound C-1191],IC50,[1]; [5],678 nM
same,solubility,Solubility pH 7,4250 µg/mL
same,IC50,[2]; [6],24.7 nM
COC[C@H](NC(=O)CN1CCOCC1)C(=O)N[C@@H](Cc1ccc(OC)cc1)C(=O)N[C@@H](Cc1ccccc1)C(=O)[C@@]1(C)CO1 [Compound C-1220],IC50,[3],11 nM
COC[C@H](NC(=O)[C@H](C)NC(=O)CN1CCOCC1)C(=O)N[C@@H](Cc1ccccc1)C(=O)[C@@]1(C)CO1 [Compound C-1234],IC50,[3],1500 nM
C[C@H](NC(=O)CN1CCOCC1)C(=O)N[C@@H](CC1CCCCC1)C(=O)N[C@@H](Cc1ccccc1)C(=O)[C@@]1(C)CO1 [Compound C-1235],IC50,[3],390 nM
